Here are results for 14 compounds from US20100105729A1, “ARYL-SUBSTITUTED HETEROCYCLIC PDE4 INHIBITORS AS ANTI-INFLAMMATORY AGENTS” (KALYPSYS, INC., priority 2006, published 2010).

Usually inhibition stands for how much of the control response was suppressed. The low end stands for a weak effect, the high end for a strong effect.

Molecules are shown by their SMILES. Bounds are passed on as bounds.

In the assay the target is T1, PDE4B (Homo sapiens, UniProt Q07343).
T1 construct: hexa-histidine (His6) (N); made in house
T1 sequence (Q07343 330-659 limits assumed, species assumed): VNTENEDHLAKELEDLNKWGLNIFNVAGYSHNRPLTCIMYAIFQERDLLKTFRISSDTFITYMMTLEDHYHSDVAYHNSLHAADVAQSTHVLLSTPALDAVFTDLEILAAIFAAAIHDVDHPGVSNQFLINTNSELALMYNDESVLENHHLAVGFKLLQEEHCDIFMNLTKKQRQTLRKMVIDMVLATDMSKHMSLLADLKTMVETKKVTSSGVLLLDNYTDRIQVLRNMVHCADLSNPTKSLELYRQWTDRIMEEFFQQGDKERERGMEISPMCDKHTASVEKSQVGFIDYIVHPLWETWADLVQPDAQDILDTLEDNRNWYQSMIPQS
Briefly: PDE4 IMAP Assay. In kind it is biochemical. Conditions: catalytic domain of PDE4B, fluorescence polarization. From the text:
Compounds may be screened for functional potency in in vitro biochemical assays for their ability to inhibit the activity of phosphodiesterase (PDE) enzymes. A commercial PDE assay, Molecular Device's PDE IMAP assay, was modified and utilized to measure the inhibitory activity of compounds on PDE isoforms. The IMAP technology is based on the high affinity binding of phosphate by immobilized metal (MIII) coordination complexes on nanoparticles. This IMAP “binding reagent” complexes with phosphate groups on the nucleotide monophosphates generated in the reaction. Such binding causes a change in the rate of the molecular motion of the nucleotide, and results in an increase in the fluorescence polarization value observed for the fluorescent label attached to the substrate. PDE inhibitors prevent the generation of nucleotide monophosphates and the subsequent increase in polarization value observed for the fluorescent label attached to the substrate. The catalytic domain of PDE4B was fused to an amino-terminus hex-histadine affinity tag and purified. PDE4B enzyme was incubated with compounds for 10 minutes. Fluorescently labeled cyclic AMP substrates were then added to the PDE enzyme mix and incubated for 2 hours at room temperature. IMAP binding reagent was then added to the enzyme mix, incubated for 10-30 minutes and fluorescent polarization of the fluorescently labeled substrate was read either with the Perkin Elmer Viewlux or Molecular Devices Acquest or Analyst. Roflumilast and Rolipram are the positive controls used in the assay.
(In fluorescence polarisation assays a small probe gives low polarisation when free and higher when bound to something large.)
The compound `COc1ccc(C2=NN(C(=O)CCC(=O)O)C(c3ccccc3OC)C2)cc1OC` (centres unmarked) [Example 98, 4-(3-(3,4-dimethoxyphenyl)-5-(2-methoxyphenyl)-4,5-dihydro-1H-pyrazol-1-yl)-4-oxobutanoic acid] displayed an inhibition at 10 µM of less than 50%.
`COc1ccc(C2=NN(C(C)=O)C(c3cc4ccccc4nc3Cl)C2)cc1OC` (centres unmarked) [Example 28, 1-(5-(2-chloroquinolin-3-yl)-3-(3,4-dimethoxyphenyl)-4,5-dihydro-1H-pyrazol-1-yl)ethanone] showed an inhibition at 10 µM of less than 50%.
As to `COc1ccc(C2=NN(C(=O)c3ccc(Br)o3)C(c3ccc(F)cc3)C2)cc1OC` (centres unmarked) [Example 46, (5-bromofuran-2-yl)(3-(3,4-dimethoxyphenyl)-5-(4-fluorophenyl)-4,5-dihydro-1H-pyrazol-1-yl)methanone], the inhibition at 10 µM is not below 50%.
Then `COc1ccc(C2=NN(C(=O)CCCC(=O)O)C(c3cccc(OC)c3OC)C2)cc1OC` (centres unmarked) [Example 94, 5-(5-(2,3-dimethoxyphenyl)-3-(3,4-dimethoxyphenyl)-4,5-dihydro-1H-pyrazol-1-yl)-5-oxopentanoic acid], with less than 50%; and `COc1ccc(C2=NN(C(=O)CCCC(=O)O)C(c3ccccc3Cl)C2)cc1OC` (centres unmarked) [Example 67, 5-(5-(2-chlorophenyl)-3-(3,4-dimethoxyphenyl)-4,5-dihydro-1H-pyrazol-1-yl)-5-oxopentanoic acid], with less than 50%; and `CCc1ccc(C2CC(c3ccc(OC)c(OC)c3)=NN2C(=O)CCC(=O)O)cc1` (centres unmarked) [Example 19, 4-(3-(3,4-dimethoxyphenyl)-5-(4-ethylphenyl)-4,5-dihydro-1H-pyrazol-1-yl)-4-oxobutanoic acid], with less than 50%.
The figure for `CCC(=O)N1N=C(c2ccc(OC)c(OC)c2)CC1c1ccc(CC)cc1` (centres unmarked) [Example 20, 1-(3-(3,4-dimethoxyphenyl)-5-(4-ethylphenyl)-4,5-dihydro-1H-pyrazol-1-yl)propan-1-one] is less than 50%.
The figure for `COc1ccc(C2=NN(C(=O)c3ccccc3Cl)C(c3ccccc3F)C2)cc1OC` (centres unmarked) [Example 34, (2-chlorophenyl)(3-(3,4-dimethoxyphenyl)-5-(2-fluorophenyl)-4,5-dihydro-1H-pyrazol-1-yl)methanone] is not below 50%; for `COc1ccc(C2=NN(C(=O)CCCC(=O)O)C(c3ccc(Cl)cc3)C2)cc1OC` (centres unmarked) [Example 95, 5-(5-(4-chlorophenyl)-3-(3,4-dimethoxyphenyl)-4,5-dihydro-1H-pyrazol-1-yl)-5-oxopentanoic acid] it is less than 50%.
On to `COc1ccc(C2=NN(C(=O)CCCC(=O)O)C(c3cccs3)C2)cc1OC` (centres unmarked) [Example 1, 5-(3-(3,4-dimethoxyphenyl)-5-(thiophen-2-yl)-4,5-dihydro-1H-pyrazol-1-yl)-5-oxopentanoic acid], for which the inhibition at 10 µM was less than 50%.
In the case of `COc1ccc(C2=NN(C(=O)c3ccc(Br)o3)C(c3ccc(Cl)cc3)C2)cc1OC` (centres unmarked) [Example 47, (5-bromofuran-2-yl)(5-(4-chlorophenyl)-3-(3,4-dimethoxyphenyl)-4,5-dihydro-1H-pyrazol-1-yl)methanone], the inhibition at 10 µM was not below 50%.
Then `COc1ccc(C2=NN(C(=O)CCC(=O)O)C(c3ccccc3)C2)cc1OC` (centres unmarked) [Example 99, 4-(3-(3,4-dimethoxyphenyl)-5-phenyl-4,5-dihydro-1H-pyrazol-1-yl)-4-oxobutanoic acid], with less than 50%; and `COc1ccc(OC)c(C2CC(c3ccc(OC)c(OC)c3)=NN2S(=O)(=O)c2ccc(C)cc2)c1` (centres unmarked) [Example 89, 5-(2,5-dimethoxyphenyl)-3-(3,4-dimethoxyphenyl)-1-tosyl-4,5-dihydro-1H-pyrazole], with less than 50%.
With `CCc1ccc(C2CC(c3ccc(OC)c(OC)c3)=NN2S(C)(=O)=O)cc1` (centres unmarked) [Example 12, 3-(3,4-dimethoxyphenyl)-5-(4-ethylphenyl)-1-(methylsulfonyl)-4,5-dihydro-1H-pyrazole], the inhibition at 10 µM was less than 50%.
